Results: ChEMBL document CHEMBL3885881, “DrugMatrix”

Species on record: Rattus norvegicus
Experiment: DrugMatrix - Regimen: Daily Repeat
Type: toxicity, organism-based, Sprague-Dawley
Set-up: regimen Daily Repeat, gender Male, age 6-8 weeks
Details: in vivo, sc, route subcutaneous, […]; for ABSOLUTE BASOPHIL / ABSOLUTE EOSINOPHIL / ABSOLUTE LYMPHOCYTE / ABSOLUTE MONOCYTE / ABSOLUTE SEGMENTED NEUTROPHIL / BASOPHIL / EOSINOPHIL / ERYTHROCYTE COUNT / HEMATOCRIT / HEMOGLOBIN / LEUKOCYTE COUNT / LYMPHOCYTE / MEAN CORPUSCULAR HEMOGLOBIN / MEAN CORPUSCULAR HEMOGLOBIN CONCENTRATION / MEAN CORPUSCULAR VOLUME / MONOCYTE / NEUTROPHIL / NUCLEATED RED BLOOD CELLS / PLATELET COUNT: tissue Blood; for ALANINE AMINOTRANSFERASE / ALBUMIN / ALKALINE PHOSPHATASE / ASPARTATE AMINOTRANSFERASE / BLOOD UREA NITROGEN / CARBON DIOXIDE / CHLORIDE / CHOLESTEROL / CREATINE PHOSPHOKINASE / CREATININE / GLUCOSE / LACTATE DEHYDROGENASE / LIPASE / PHOSPHORUS / POTASSIUM / SODIUM / TOTAL BILIRUBIN / TOTAL PROTEIN / URIC ACID: tissue Plasma
[1] = 56 mg/kg, 120 h, dose level M1, time 5 day
[2] = 72 h, dose 5.6 mg/Kg, dose level Low, time 3 day
[3] = 120 h, dose 5.6 mg/Kg, dose level Low, time 5 day

Structure (SMILES): O=C(Nc1ccc(Br)cc1)c1cc(Br)cc(Br)c1O [TRIBROMSALAN]
- ABSOLUTE BASOPHIL [1]: 0 CELLS/uL
- ABSOLUTE EOSINOPHIL [1]: 183 CELLS/uL
- ABSOLUTE LYMPHOCYTE [1]: 10057 CELLS/uL
- ABSOLUTE MONOCYTE [1]: 145 CELLS/uL
- ABSOLUTE SEGMENTED NEUTROPHIL [1]: 1315 CELLS/uL
- BASOPHIL [1]: 0%
- EOSINOPHIL [1]: 1%
- ERYTHROCYTE COUNT [1]: 5.63 x10E6/uL
- HEMATOCRIT [1]: 34.6%
- HEMOGLOBIN [1]: 12.83 G/DL
- LEUKOCYTE COUNT [1]: 11.7 x10E3/uL
- LYMPHOCYTE [1]: 86.33%
- MEAN CORPUSCULAR HEMOGLOBIN [1]: 22.8 pg
- MEAN CORPUSCULAR HEMOGLOBIN CONCENTRATION [1]: 37.1 G/DL
- MEAN CORPUSCULAR VOLUME [1]: 61.47 fL
- MONOCYTE [1]: 1.33%
- NEUTROPHIL [1]: 11.33%
- NUCLEATED RED BLOOD CELLS [1]: 0 /100WBC
- PLATELET COUNT [1]: 1090 x10E3/uL
- ALANINE AMINOTRANSFERASE [1]: 51 u/L
- ALBUMIN [1]: 3.77 G/DL
- ALKALINE PHOSPHATASE [1]: 376.33 u/L
- ASPARTATE AMINOTRANSFERASE [1]: 90 u/L
- BLOOD UREA NITROGEN [1]: 16 mg/dL
- CARBON DIOXIDE [1]: 24 mmol/L
- CHLORIDE [1]: 99 MEQ/L
- CHOLESTEROL [1]: 81.33 mg/dL
- CREATINE PHOSPHOKINASE [1]: 578.33 u/L
- CREATININE [1]: 0.19 mg/dL
- GLUCOSE [1]: 142 mg/dL
- LACTATE DEHYDROGENASE [1]: 171.33 u/L
- LIPASE [1]: 7.33 u/L
- PHOSPHORUS [1]: 11.13 mg/dL
- POTASSIUM [1]: 6.14 MEQ/L
- SODIUM [1]: 146.5 MEQ/L
- TOTAL BILIRUBIN [1]: 0.23 mg/dL
- TOTAL PROTEIN [1]: 6.23 G/DL
- URIC ACID [1]: 1.13 mg/dL
- ABSOLUTE BASOPHIL [2]: 0 CELLS/uL
- ABSOLUTE EOSINOPHIL [2]: 0 CELLS/uL
- ABSOLUTE LYMPHOCYTE [2]: 7670 CELLS/uL
- ABSOLUTE MONOCYTE [2]: 0 CELLS/uL
- ABSOLUTE SEGMENTED NEUTROPHIL [2]: 730 CELLS/uL
- BASOPHIL [2]: 0%
- EOSINOPHIL [2]: 0%
- ERYTHROCYTE COUNT [2]: 4.92 x10E6/uL
- HEMATOCRIT [2]: 32.37%
- HEMOGLOBIN [2]: 12.33 G/DL
- LEUKOCYTE COUNT [2]: 8.4 x10E3/uL
- LYMPHOCYTE [2]: 91.67%
- MEAN CORPUSCULAR HEMOGLOBIN [2]: 25.1 pg
- MEAN CORPUSCULAR HEMOGLOBIN CONCENTRATION [2]: 38.13 G/DL
- MEAN CORPUSCULAR VOLUME [2]: 65.77 fL
- MONOCYTE [2]: 0%
- NEUTROPHIL [2]: 8.33%
- NUCLEATED RED BLOOD CELLS [2]: 0 /100WBC
- PLATELET COUNT [2]: 800.67 x10E3/uL
- ALANINE AMINOTRANSFERASE [2]: 47.33 u/L
- ALBUMIN [2]: 4.3 G/DL
- ALKALINE PHOSPHATASE [2]: 403.67 u/L
- ASPARTATE AMINOTRANSFERASE [2]: 74.33 u/L
- BLOOD UREA NITROGEN [2]: 15.33 mg/dL
- CARBON DIOXIDE [2]: 24.33 mmol/L
- CHLORIDE [2]: 101.67 MEQ/L
- CHOLESTEROL [2]: 72.33 mg/dL
- CREATINE PHOSPHOKINASE [2]: 270.67 u/L
- CREATININE [2]: 0.18 mg/dL
- GLUCOSE [2]: 163 mg/dL
- LACTATE DEHYDROGENASE [2]: 143 u/L
- LIPASE [2]: 8.33 u/L
- PHOSPHORUS [2]: 13.13 mg/dL
- POTASSIUM [2]: 6.25 MEQ/L
- SODIUM [2]: 144.7 MEQ/L
- TOTAL BILIRUBIN [2]: 0.3 mg/dL
- TOTAL PROTEIN [2]: 5.97 G/DL
- URIC ACID [2]: 2.13 mg/dL
- ABSOLUTE BASOPHIL [3]: 0 CELLS/uL
- ABSOLUTE EOSINOPHIL [3]: 126 CELLS/uL
- ABSOLUTE LYMPHOCYTE [3]: 12819 CELLS/uL
- ABSOLUTE MONOCYTE [3]: 78 CELLS/uL
- ABSOLUTE SEGMENTED NEUTROPHIL [3]: 1743.67 CELLS/uL
- BASOPHIL [3]: 0%
- EOSINOPHIL [3]: 0.67%
- ERYTHROCYTE COUNT [3]: 5.88 x10E6/uL
- HEMATOCRIT [3]: 36.87%
- HEMOGLOBIN [3]: 13.53 G/DL
- LEUKOCYTE COUNT [3]: 14.77 x10E3/uL
- LYMPHOCYTE [3]: 87%
- MEAN CORPUSCULAR HEMOGLOBIN [3]: 23.07 pg
- MEAN CORPUSCULAR HEMOGLOBIN CONCENTRATION [3]: 36.77 G/DL
- MEAN CORPUSCULAR VOLUME [3]: 62.77 fL
- MONOCYTE [3]: 0.67%
- NEUTROPHIL [3]: 11.67%
- NUCLEATED RED BLOOD CELLS [3]: 0 /100WBC
- PLATELET COUNT [3]: 1236 x10E3/uL
- ALANINE AMINOTRANSFERASE [3]: 46.33 u/L
- ALBUMIN [3]: 4 G/DL
- ALKALINE PHOSPHATASE [3]: 354.67 u/L
- ASPARTATE AMINOTRANSFERASE [3]: 82.33 u/L
- BLOOD UREA NITROGEN [3]: 17.67 mg/dL
- CARBON DIOXIDE [3]: 27.33 mmol/L
- CHLORIDE [3]: 101.67 MEQ/L
- CHOLESTEROL [3]: 65.33 mg/dL
- CREATINE PHOSPHOKINASE [3]: 261.33 u/L
- CREATININE [3]: 0.2 mg/dL
- GLUCOSE [3]: 152.67 mg/dL
- LACTATE DEHYDROGENASE [3]: 145.67 u/L
- LIPASE [3]: 8 u/L
- PHOSPHORUS [3]: 11.87 mg/dL
- POTASSIUM [3]: 6.3 MEQ/L
- SODIUM [3]: 145.97 MEQ/L
- TOTAL BILIRUBIN [3]: 0.13 mg/dL
- TOTAL PROTEIN [3]: 5.97 G/DL
- URIC ACID [3]: 1.5 mg/dL
